These are literature values, as cited in patent US9717712B2, “Combinations comprising tricyclohexadecahexaene derivatives for use in the treatment of hepatitis C virus” (BRISTOL-MYERS SQUIBB COMPANY, priority 2013, dated 2017).

The subject of the data set is HCV genotype 1a variant with glutamine 30 changed to glutamate in the NS5A protein (Q30E). To be noted: genotype 1a Q30E replicon.
[1] abbreviates: single agent, read-out: EC50, compound titrated singly.

Read-outs that look alike come from different tables or passages of the source.

On to `COC(=O)N[C@H](C(=O)N1CCC[C@H]1c1nc(-c2ccc(-c3ccc(-c4c[nH]c([C@@H]5CCCN5C(=O)[C@@H](NC(=O)OC)C(C)C)n4)cc3)cc2)c[nH]1)C(C)C` [BMS-790052], for which, for the setting “BMS-790052 titrated with P-55 fixed at 200 nM”, the “reciprocal synergistic inhibitory effect for the combination” value is ~100 fold. The half-maximal effective concentration (EC50) was ~2 nM (P-55 fixed at 200 nM, read-out: EC50 of BMS-790052 in the presence of a fixed amount of P-55) and ~200 nM under setting [1].
With `CC(C)CC(=O)N[C@H](c1ncc(-c2ccc(-c3ccc(-c4cnc([C@@H](NC(=O)CC(C)C)C(C)C)[nH]4)cc3)cc2)[nH]1)C(C)C` [Compound P-55], the concentration for a half-maximal effect (EC50) was ~2 nM (BMS-790052 fixed at 200 nM, read-out: EC50 of P-55 in the presence of a fixed amount of BMS-790052) and > 200 nM under setting [1]. The “synergistic inhibitory effect for the combination” value (P-55 titrated with BMS-790052 fixed at 200 nM) is reported as > 100 fold.
